From ChEMBL document CHEMBL3991601, “The target landscape of clinical kinase drugs” (Science, 2017)
The source made the active and inactive calls. Rule as the data show it, for most assays here: actives have a measured Kd and inactives only a lower limit.

How the values were obtained:
[1] = molecular target: Proto-oncogene tyrosine-protein kinase receptor Ret (Homo sapiens, UniProt P07949)
[2] = molecular target: T1, Serine/threonine-protein kinase TAO1 (Homo sapiens, UniProt Q7L7X3)
T1 sequence (Q7L7X3 whole entry): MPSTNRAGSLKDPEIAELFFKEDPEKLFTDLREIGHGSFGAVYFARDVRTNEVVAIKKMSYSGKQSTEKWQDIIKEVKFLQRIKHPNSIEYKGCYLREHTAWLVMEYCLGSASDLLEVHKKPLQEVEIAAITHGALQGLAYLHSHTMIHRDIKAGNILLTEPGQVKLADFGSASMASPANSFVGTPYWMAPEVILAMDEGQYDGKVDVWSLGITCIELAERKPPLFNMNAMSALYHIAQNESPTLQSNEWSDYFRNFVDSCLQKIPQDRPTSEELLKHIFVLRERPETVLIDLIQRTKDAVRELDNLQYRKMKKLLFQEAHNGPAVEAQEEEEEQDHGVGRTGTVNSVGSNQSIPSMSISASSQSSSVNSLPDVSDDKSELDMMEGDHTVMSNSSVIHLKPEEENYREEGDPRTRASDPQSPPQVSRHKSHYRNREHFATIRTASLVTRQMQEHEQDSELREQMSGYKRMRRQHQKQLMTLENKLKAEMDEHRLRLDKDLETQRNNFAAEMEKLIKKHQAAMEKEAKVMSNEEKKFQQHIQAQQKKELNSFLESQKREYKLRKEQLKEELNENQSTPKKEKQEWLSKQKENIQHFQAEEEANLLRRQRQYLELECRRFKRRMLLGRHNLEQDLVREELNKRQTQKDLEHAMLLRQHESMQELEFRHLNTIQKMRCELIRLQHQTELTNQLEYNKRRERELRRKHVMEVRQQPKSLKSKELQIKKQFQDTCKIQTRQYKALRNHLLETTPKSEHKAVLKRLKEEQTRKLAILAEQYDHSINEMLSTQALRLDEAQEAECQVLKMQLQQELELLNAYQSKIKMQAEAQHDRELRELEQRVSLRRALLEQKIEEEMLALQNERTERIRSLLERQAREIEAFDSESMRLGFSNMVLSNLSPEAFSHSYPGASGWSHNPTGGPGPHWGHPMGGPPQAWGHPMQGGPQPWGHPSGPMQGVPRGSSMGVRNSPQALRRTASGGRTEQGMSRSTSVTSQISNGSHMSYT

[3] = molecular target: S-adenosylmethionine synthase isoform type-2 (Homo sapiens, UniProt P31153)
[4] = molecular target: T2, Probable ATP-dependent RNA helicase DDX6 (Homo sapiens, UniProt P26196)
T2 sequence (P26196 whole entry): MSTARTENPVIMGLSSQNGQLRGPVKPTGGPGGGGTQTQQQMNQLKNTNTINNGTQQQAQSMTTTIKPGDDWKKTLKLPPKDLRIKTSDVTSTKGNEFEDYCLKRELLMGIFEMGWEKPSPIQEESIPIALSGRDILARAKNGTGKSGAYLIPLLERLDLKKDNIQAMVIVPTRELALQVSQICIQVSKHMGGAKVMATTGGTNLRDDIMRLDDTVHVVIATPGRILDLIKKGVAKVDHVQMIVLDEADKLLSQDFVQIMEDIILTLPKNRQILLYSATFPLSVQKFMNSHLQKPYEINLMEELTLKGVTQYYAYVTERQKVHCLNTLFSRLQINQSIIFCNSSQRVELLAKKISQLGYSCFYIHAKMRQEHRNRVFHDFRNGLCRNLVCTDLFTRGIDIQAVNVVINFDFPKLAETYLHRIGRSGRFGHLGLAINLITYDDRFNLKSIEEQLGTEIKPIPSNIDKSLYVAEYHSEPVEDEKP

[5] = molecular target: Cyclin-dependent kinase 7 (Homo sapiens, UniProt P50613)
[6] = molecular target: Cyclin-dependent kinase 5 (Homo sapiens, UniProt Q00535)
[7] = molecular target: T3, Acyl-CoA dehydrogenase family member 10 (Homo sapiens, UniProt Q6JQN1)
T3 sequence (Q6JQN1 whole entry): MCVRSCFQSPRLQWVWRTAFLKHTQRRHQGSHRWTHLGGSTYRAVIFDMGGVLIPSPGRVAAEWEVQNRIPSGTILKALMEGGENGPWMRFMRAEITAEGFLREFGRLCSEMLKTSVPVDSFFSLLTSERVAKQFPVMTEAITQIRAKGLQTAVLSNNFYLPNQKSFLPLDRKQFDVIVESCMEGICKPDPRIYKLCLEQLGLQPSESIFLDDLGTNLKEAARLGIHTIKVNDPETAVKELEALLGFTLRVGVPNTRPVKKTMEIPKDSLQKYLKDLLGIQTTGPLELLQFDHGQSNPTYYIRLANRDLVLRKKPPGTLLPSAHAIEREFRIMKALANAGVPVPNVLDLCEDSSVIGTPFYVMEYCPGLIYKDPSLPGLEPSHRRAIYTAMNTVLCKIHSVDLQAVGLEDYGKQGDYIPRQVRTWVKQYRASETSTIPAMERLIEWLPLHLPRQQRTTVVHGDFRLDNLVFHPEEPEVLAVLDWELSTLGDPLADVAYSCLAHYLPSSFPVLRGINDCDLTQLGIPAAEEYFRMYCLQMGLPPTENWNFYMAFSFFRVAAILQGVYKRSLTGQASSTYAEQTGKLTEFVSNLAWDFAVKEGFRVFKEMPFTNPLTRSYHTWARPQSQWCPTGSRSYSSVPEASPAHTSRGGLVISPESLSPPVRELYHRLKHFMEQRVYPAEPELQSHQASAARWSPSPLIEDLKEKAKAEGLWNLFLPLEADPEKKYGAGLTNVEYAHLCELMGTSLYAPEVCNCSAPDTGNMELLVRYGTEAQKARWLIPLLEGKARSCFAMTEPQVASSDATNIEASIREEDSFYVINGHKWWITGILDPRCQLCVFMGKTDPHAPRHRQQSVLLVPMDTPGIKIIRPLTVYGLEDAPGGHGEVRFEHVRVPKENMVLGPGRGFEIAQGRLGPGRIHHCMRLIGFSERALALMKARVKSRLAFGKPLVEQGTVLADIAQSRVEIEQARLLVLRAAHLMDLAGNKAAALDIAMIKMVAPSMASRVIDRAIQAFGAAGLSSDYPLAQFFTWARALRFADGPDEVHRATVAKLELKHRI
Also: in the data inactive means no Kd found up to 30 µM.

Chain of Proto-oncogene tyrosine-protein kinase receptor Ret (P07949 whole entry): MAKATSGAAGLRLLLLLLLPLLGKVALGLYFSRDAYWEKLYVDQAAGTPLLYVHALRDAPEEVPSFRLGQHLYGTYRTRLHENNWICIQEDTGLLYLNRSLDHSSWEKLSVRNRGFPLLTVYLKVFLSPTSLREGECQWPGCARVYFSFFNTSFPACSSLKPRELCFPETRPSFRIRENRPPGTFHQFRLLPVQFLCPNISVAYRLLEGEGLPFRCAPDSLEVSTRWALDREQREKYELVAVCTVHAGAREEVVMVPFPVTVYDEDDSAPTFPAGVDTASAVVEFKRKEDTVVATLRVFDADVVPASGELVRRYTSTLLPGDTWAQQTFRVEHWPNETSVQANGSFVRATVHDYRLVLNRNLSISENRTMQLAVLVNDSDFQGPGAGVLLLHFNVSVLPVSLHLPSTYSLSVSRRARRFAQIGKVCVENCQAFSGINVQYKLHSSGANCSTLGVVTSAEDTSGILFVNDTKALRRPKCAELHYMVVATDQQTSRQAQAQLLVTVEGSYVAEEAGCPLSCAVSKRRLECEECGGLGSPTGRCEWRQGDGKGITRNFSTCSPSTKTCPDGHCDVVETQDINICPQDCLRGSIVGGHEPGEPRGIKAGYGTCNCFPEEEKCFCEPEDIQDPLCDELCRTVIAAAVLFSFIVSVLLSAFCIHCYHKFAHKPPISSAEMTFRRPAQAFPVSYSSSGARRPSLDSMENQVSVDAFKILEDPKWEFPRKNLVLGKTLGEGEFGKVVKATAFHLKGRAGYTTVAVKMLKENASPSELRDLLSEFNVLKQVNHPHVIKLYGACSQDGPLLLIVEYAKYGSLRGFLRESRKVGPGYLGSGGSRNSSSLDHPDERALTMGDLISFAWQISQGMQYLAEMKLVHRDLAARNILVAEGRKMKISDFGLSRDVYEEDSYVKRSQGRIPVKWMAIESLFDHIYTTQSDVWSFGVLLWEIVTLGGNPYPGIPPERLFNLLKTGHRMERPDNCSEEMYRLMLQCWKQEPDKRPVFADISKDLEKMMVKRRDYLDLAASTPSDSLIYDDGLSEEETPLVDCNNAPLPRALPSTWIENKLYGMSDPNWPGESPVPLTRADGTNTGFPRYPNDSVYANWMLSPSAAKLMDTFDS
Chain of Cyclin-dependent kinase 5 (Q00535 whole entry): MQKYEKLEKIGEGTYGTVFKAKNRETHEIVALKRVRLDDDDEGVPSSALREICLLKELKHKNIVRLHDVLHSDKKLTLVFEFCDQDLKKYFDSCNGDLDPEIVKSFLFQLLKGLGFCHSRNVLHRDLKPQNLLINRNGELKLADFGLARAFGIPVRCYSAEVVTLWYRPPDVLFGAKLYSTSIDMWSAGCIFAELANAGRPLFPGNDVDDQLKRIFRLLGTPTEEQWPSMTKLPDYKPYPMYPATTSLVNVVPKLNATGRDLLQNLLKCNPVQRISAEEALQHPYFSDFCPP
Chain of S-adenosylmethionine synthase isoform type-2 (P31153 whole entry, canonical isoform): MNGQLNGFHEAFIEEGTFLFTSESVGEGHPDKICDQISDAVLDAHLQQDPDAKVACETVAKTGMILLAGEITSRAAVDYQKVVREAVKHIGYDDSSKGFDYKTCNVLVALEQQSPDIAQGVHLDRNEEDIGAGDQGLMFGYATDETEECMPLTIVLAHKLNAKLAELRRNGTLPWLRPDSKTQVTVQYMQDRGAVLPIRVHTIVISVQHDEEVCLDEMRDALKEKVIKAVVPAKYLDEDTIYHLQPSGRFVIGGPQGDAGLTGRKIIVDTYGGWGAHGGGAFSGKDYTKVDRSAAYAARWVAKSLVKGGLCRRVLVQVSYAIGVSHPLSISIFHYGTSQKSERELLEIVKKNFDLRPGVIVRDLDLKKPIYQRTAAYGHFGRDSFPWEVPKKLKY
Chain of Cyclin-dependent kinase 7 (P50613 whole entry): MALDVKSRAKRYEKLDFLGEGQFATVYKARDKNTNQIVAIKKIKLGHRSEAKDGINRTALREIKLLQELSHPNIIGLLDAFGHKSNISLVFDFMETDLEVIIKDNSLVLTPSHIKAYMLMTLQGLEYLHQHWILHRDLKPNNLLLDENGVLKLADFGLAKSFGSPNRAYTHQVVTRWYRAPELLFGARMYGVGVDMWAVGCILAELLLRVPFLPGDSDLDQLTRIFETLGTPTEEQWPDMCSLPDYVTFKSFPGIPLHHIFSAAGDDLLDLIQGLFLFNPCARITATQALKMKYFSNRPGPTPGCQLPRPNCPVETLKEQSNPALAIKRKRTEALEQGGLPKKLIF

Compound | Kd [1] | Kd [2] | Kd [3] | Kd [4] | Kd [5] | Kd [6] | Kd [7]
CCOc1cc2ncc(C#N)c(Nc3ccc(F)c(Cl)c3)c2cc1NC(=O)/C=C/CN(C)C [PELITINIB] | > 30 µM (inactive) | > 30 µM (inactive) | > 30 µM (inactive) | > 30 µM (inactive) | > 30 µM (inactive) | > 30 µM (inactive) | > 30 µM (inactive)
COc1c(OCCCN2CCOCC2)ccc2c1N=C(NC(=O)c1cnc(N)nc1)N1CCN=C21 [COPANLISIB] | > 30 µM (inactive) | > 30 µM (inactive) | > 30 µM (inactive) | > 30 µM (inactive) | > 30 µM (inactive) | > 30 µM (inactive) | > 30 µM (inactive)
O=c1[nH]ccc2cc(OC3CCNCC3)ccc12 [SAR-407899 FREE BASE] | > 30 µM (inactive) | > 30 µM (inactive) | > 30 µM (inactive) | > 30 µM (inactive) | > 30 µM (inactive) | > 30 µM (inactive) | > 30 µM (inactive)
CNC(=O)c1cccc2cc(Oc3ccnc4cc(OCC5(N)CC5)c(OC)cc34)ccc12 [LUCITANIB] | 0.005 µM (active) | > 30 µM (inactive) | > 30 µM (inactive) | > 30 µM (inactive) | > 30 µM (inactive) | > 30 µM (inactive) | > 30 µM (inactive)
C=CC(=O)Nc1cc2c(Nc3ccc(F)c(Cl)c3)ncnc2cc1C#CC(C)(C)N1CCN(C)CC1 [AV-412 FREE BASE] | > 30 µM (inactive) | > 30 µM (inactive) | > 30 µM (inactive) | > 30 µM (inactive) | > 30 µM (inactive) | > 30 µM (inactive) | > 30 µM (inactive)

Second part, the molecule after the results:

Kd [1] | Kd [2] | Kd [3] | Kd [4] | Kd [5] | Kd [6] | Kd [7] | Compound
2.55 µM | > 30 µM (inactive) | > 30 µM (inactive) | > 30 µM (inactive) | > 30 µM (inactive) | > 30 µM (inactive) | > 30 µM (inactive) | Cn1cc(-c2cnn3c(N)c(Br)c([C@@H]4CCCNC4)nc23)cn1 [SCH-900776]
> 30 µM (inactive) | > 30 µM (inactive) | > 30 µM (inactive) | > 30 µM (inactive) | > 30 µM (inactive) | > 30 µM (inactive) | > 30 µM (inactive) | CCn1c(C(=O)N(C2CC2)C2CC2)cc2c3c(ncn3C)c(Nc3cc(C)n(C)n3)nc21 [BMS-911543]
